Patent US12077503B2, “Substituted cyclic amides and their use as herbicides” (FMC CORPORATION, priority 2015, dated 2024)

Key:
Type in all cases: in vivo
Kochia (Kochia scoparia) [1] = assay: Test A preemergence
Method in brief: (§1)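 Greenhouse, ~10 d after spray; visual injury vs untreated controls, 0 = no effect, 100 = complete control. Preemergence: directed soil spray over planted seeds. Postemergence: plants 2–10 cm, 1–2 leaf stage. Loam/sand blend. Compound in non-phytotoxic solvent with surfactant.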

[2] = tested on: barnyardgrass (Echinochloa crus-galli); assay: Test A preemergence
Method in brief: as §1

[3] = tested on: giant foxtail (Setaria faberii); assay: Test A preemergence
Method in brief: as §1

[4] = tested on: pigweed (Amaranthus retroflexus); assay: Test A preemergence
[5] = tested on: ragweed (common ragweed, Ambrosia elatior); assay: Test A preemergence
Method in brief: as §1

[6] = tested on: ryegrass, Italian (Italian ryegrass, Lolium multiflorum); assay: Test A preemergence
Method in brief: as §1

[7] = tested on: Galium (catchweed bedstraw, Galium aparine); assay: Test A postemergence
Method in brief: as §1

Kochia (Kochia scoparia) [8] = assay: Test A postemergence
Method in brief: as §1

[9] = tested on: barnyardgrass (Echinochloa crus-galli); assay: Test A postemergence
Method in brief: as §1

[10] = tested on: blackgrass (Alopecurus myosuroides); assay: Test A postemergence
Method in brief: as §1

corn (Zea mays) = assay: Test A postemergence
Method in brief: as §1

[11] = tested on: giant foxtail (Setaria faberii); assay: Test A postemergence
Method in brief: as §1

[12] = tested on: pigweed (Amaranthus retroflexus); assay: Test A postemergence
Method in brief: as §1

[13] = tested on: ragweed (common ragweed, Ambrosia elatior); assay: Test A postemergence
Method in brief: as §1

[14] = tested on: ryegrass, Italian (Italian ryegrass, Lolium multiflorum); assay: Test A postemergence
Method in brief: as §1

[15] = tested on: wheat (Triticum aestivum); assay: Test A postemergence
Method in brief: as §1

[16] = tested on: barnyardgrass (Echinochloa crus-galli); assay: Test B flooded paddy test; details: Flood, 0 to 100 scale where 0 is no effect and 100 is complete control, 13 to 15 d
Method in brief: (§2)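 Greenhouse paddy pots with 2-leaf stage plants received compound by direct addition to floodwater 3 cm deep, kept at that level. Scored visually at 13–15 d versus controls (0 no effect; 100 complete control).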

[17] = tested on: ducksalad (Heteranthera limosa); assay: Test B flooded paddy test; details: Flood, 0 to 100 scale where 0 is no effect and 100 is complete control, 13 to 15 d
Method in brief: as §2

rice (Oryra sativa) = assay: Test B flooded paddy test; details: Flood, 0 to 100 scale where 0 is no effect and 100 is complete control, 13 to 15 d
Method in brief: as §2

[18] = tested on: sedge, umbrella (small-flower umbrella sedge, Cyperus difformis); assay: Test B flooded paddy test; details: Flood, 0 to 100 scale where 0 is no effect and 100 is complete control, 13 to 15 d
Method in brief: as §2

[19] = tested on: pigweed (Amaranthus retroflexus); assay: Test C preemergence; details: for Plant response rating (scale of 0 to 100), Pigweed: 31 g ai/ha, 0 is no effect, 100 is complete control; for Plant response rating, Pigweed: scale 0 to 100, 0 no effect, 100 complete control
Method in brief: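 Preemergence: sow in loam-sand soil and treat. Postemergence: grow in peat-moss/vermiculite medium to 2–18 cm (1–4 leaves) and spray. Compound in non-phytotoxic solvent with surfactant; keep in greenhouse 13–15 d; score visually against controls, 0 (none) to 100 (full control).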

[20] = 125 g ai/ha, Preemergence, visual injury after approximately 10 d, 0 to 100 scale where 0 is no effect and 100 is complete control
[21] = 500 g ai/ha, preemergence, 0 to 100 scale, 0 = no effect, 100 = complete control
[22] = 125 g ai/ha, postemergence, visual rating after approx. 10 d, 0 to 100 scale (0 no effect, 100 complete control)
[23] = Postemergence, 500 g ai/ha, 0 to 100 scale where 0 is no effect and 100 is complete control
[24] = 500 g ai/ha, postemergence, visual injury, 0 to 100 scale (0 no effect, 100 complete control), approx. 10 d

Compound	Plant response rating, Kochia (Kochia (Kochia scoparia) [1]; [20])	Plant response rating, Kochia (Kochia (Kochia scoparia) [1]; [21])	Plant response rating, Barnyardgrass [2, 20]	Plant response rating, Barnyardgrass [2, 21]	Plant response rating, Foxtail, Giant [3, 20]	Plant response rating, Foxtail, Giant [3, 21]	Plant response rating, Pigweed [4, 20]	Plant response rating, Pigweed [4, 21]	Plant response rating, Ragweed [5, 20]	Plant response rating, Ragweed [5, 21]	Plant response rating, Ryegrass, Italian [6, 20]	Plant response rating, Ryegrass, Italian [6, 21]	Plant response rating, Galium [7, 22]	Plant response rating, Kochia (Kochia (Kochia scoparia) [8]; [22])	Plant response rating, Barnyardgrass [9, 22]	Plant response rating, Blackgrass [10, 22]	Plant response rating, Corn (corn (Zea mays); [22])	Plant response rating, Foxtail, Giant [11, 22]	Plant response rating, Pigweed [12, 22]	Plant response rating, Ragweed [13, 22]	further results
CN1CC(c2cccc(OC(F)F)c2)C(C(=O)Nc2cccc(F)c2F)C1=O (stereo not drawn) [Compound 616]	70	80	90	90	90	100	80	90	80	80	80	90	60	50	90	50	70	90	40	0	Plant response rating, Galium [7, 23]: 70; Plant response rating, Kochia (Kochia (Kochia scoparia) [8]; [23]): 70; Plant response rating, Barnyardgrass [9, 23]: 90; Plant response rating, Blackgrass [10, 23]: 60; Plant response rating, Corn (corn (Zea mays); [23]): 80; Plant response rating, Foxtail, Giant [11, 23]: 90; Plant response rating, Pigweed [12, 23]: 60; Plant response rating, Ragweed [13, 23]: 20; Plant response rating, Ryegrass, Italian [14, 22]: 50; Plant response rating, Ryegrass, Italian [14, 23]: 80; Plant response rating, Wheat [15, 22]: 60; Plant response rating, Wheat [15, 23]: 70; Plant response rating, Barnyardgrass ([16]; 250 g ai/ha): 70; Plant response rating, Ducksalad ([17]; 250 g ai/ha): 100; Plant response rating, Rice (rice (Oryra sativa); 250 g ai/ha): 10; Plant response rating, Sedge, Umbrella ([18]; 250 g ai/ha): 0; Plant response rating (scale of 0 to 100), Pigweed [19]: 75; Plant response rating, Pigweed ([19]; 62 g ai/ha): 80; Plant response rating, Pigweed ([19]; 125 g ai/ha): 80; Plant response rating, Pigweed ([19]; 250 g ai/ha): 80
O=C1NCC(c2ccc3c(c2)OC(F)(F)O3)C1C(=O)Nc1cccc(F)c1F (stereo not drawn) [Compound 635]	60	60	90	90	90	90	60	70	40	50	20	30	40	60	80	40	40	90	60	0	Plant response rating, Galium [7, 24]: 60; Plant response rating, Kochia (Kochia (Kochia scoparia) [8]; [24]): 80; Plant response rating, Barnyardgrass [9, 23]: 90; Plant response rating, Blackgrass [10, 23]: 70; Plant response rating, Corn (corn (Zea mays); [23]): 70; Plant response rating, Foxtail, Giant [11, 24]: 90; Plant response rating, Pigweed [12, 24]: 80; Plant response rating, Ragweed [13, 24]: 40; Plant response rating, Ryegrass, Italian [14, 22]: 0; Plant response rating, Ryegrass, Italian [14, 24]: 30; Plant response rating, Wheat [15, 22]: 20; Plant response rating, Wheat [15, 24]: 40; Plant response rating, Barnyardgrass ([16]; 500 g ai/ha): 60; Plant response rating, Ducksalad ([17]; 500 g ai/ha): 100; Plant response rating, Rice (rice (Oryra sativa); 500 g ai/ha): 10; Plant response rating, Sedge, Umbrella ([18]; 500 g ai/ha): 0; Plant response rating (scale of 0 to 100), Pigweed [19]: 70; Plant response rating, Pigweed ([19]; 62 g ai/ha): 70; Plant response rating, Pigweed ([19]; 125 g ai/ha): 85; Plant response rating, Pigweed ([19]; 250 g ai/ha): 85
CN1CC(c2ccc(F)c(F)c2)C(C(=O)Nc2ccccc2C(F)(F)F)C1=O (stereo not drawn) [Compound 641]	20	50	90	0	90	100	20	50	0	60	20	60	40	0	90	30	0	90	0	0	Plant response rating, Galium [7, 24]: 50; Plant response rating, Kochia (Kochia (Kochia scoparia) [8]; [24]): 20; Plant response rating, Barnyardgrass [9, 24]: 90; Plant response rating, Blackgrass [10, 24]: 60; Plant response rating, Corn (corn (Zea mays); [24]): 50; Plant response rating, Foxtail, Giant [11, 24]: 90; Plant response rating, Pigweed [12, 24]: 20; Plant response rating, Ragweed [13, 24]: 20; Plant response rating, Ryegrass, Italian [14, 22]: 0; Plant response rating, Ryegrass, Italian [14, 24]: 40; Plant response rating, Wheat [15, 22]: 0; Plant response rating, Wheat [15, 24]: 30; Plant response rating, Barnyardgrass ([16]; 250 g ai/ha): 70; Plant response rating, Ducksalad ([17]; 250 g ai/ha): 100; Plant response rating, Rice (rice (Oryra sativa); 250 g ai/ha): 0; Plant response rating, Sedge, Umbrella ([18]; 250 g ai/ha): 0; Plant response rating (scale of 0 to 100), Pigweed [19]: 0; Plant response rating, Pigweed ([19]; 62 g ai/ha): 25; Plant response rating, Pigweed ([19]; 125 g ai/ha): 60; Plant response rating, Pigweed ([19]; 250 g ai/ha): 70
